Test results as given in ChEMBL document CHEMBL3627674, “Discovery of wrightiadione as a novel template for the TrkA kinase inhibitors” (Bioorg Med Chem Lett, 2015).

Assays:
[1] = biological target: Glycogen synthase kinase-3 beta (Homo sapiens) (UniProt P49841); assay: Inhibition of GSK3B (unknown origin) assessed as remaining activity at 10 uM by high-throughput assay relative to control
[2] = biological target: Insulin receptor (Homo sapiens) (UniProt P06213); assay: Inhibition of INSR (unknown origin) assessed as remaining activity at 10 uM by high-throughput assay relative to control
Sequence of Insulin receptor (Homo sapiens) (P06213 28-758 limits assumed): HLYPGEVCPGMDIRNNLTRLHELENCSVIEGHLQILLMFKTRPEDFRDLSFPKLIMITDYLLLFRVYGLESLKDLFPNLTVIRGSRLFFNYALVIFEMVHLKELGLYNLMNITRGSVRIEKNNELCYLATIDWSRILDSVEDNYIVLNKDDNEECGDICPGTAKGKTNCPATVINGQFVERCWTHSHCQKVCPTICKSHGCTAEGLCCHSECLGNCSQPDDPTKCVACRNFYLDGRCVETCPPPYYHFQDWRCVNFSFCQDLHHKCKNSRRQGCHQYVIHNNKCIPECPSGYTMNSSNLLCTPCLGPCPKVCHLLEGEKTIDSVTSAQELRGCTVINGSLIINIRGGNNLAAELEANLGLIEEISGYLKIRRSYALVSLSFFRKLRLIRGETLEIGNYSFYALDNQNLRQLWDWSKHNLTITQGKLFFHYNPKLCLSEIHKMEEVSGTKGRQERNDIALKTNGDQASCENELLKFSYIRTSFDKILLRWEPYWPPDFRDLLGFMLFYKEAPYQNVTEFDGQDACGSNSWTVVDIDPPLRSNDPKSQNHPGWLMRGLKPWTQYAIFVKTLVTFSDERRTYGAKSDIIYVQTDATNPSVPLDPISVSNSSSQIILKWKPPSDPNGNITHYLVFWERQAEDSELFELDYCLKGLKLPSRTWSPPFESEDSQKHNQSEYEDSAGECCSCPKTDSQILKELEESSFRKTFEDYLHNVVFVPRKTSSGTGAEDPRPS
Sequence of Insulin receptor (Homo sapiens) (P06213 763-1382 limits assumed): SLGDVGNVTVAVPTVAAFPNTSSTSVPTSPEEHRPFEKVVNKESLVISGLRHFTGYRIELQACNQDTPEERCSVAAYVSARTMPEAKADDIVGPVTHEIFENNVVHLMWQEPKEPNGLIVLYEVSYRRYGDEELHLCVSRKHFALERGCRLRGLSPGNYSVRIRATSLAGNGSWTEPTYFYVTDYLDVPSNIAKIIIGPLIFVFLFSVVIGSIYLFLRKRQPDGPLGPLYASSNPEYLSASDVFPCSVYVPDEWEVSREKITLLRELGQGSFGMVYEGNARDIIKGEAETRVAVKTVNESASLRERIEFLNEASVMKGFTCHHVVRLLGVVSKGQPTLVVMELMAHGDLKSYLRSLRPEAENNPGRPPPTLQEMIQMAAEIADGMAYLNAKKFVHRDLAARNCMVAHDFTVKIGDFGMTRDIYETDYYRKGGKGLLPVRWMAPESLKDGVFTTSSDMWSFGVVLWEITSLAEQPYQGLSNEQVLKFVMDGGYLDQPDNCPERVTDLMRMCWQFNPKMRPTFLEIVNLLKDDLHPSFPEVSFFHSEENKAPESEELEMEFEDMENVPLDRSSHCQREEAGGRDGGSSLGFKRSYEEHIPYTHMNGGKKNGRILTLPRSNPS

[3] = biological target: Serine/threonine-protein kinase pim-1 (Homo sapiens) (UniProt P11309); assay: Inhibition of PIM1 (unknown origin) assessed as remaining activity at 10 uM by high-throughput assay relative to control
[4] = biological target: Mitogen-activated protein kinase kinase kinase 9 (Homo sapiens) (UniProt P80192); assay: Inhibition of MLK1 (unknown origin) assessed as remaining activity at 10 uM by high-throughput assay relative to control
[5] = biological target: NUAK family SNF1-like kinase 2 (Homo sapiens) (UniProt Q9H093); assay: Inhibition of SNARK (unknown origin) assessed as remaining activity at 10 uM by high-throughput assay relative to control
[6] = biological target: Fibroblast growth factor receptor 2 (Homo sapiens) (UniProt P21802); assay: Inhibition of FGFR2 (unknown origin) assessed as remaining activity at 10 uM by high-throughput assay relative to control
[7] = biological target: Cyclin-dependent kinase 16 (Homo sapiens) (UniProt Q00536); assay: Inhibition of PCTK1 (unknown origin) assessed as remaining activity at 10 uM by high-throughput assay relative to control
[8] = tested on: Mast/stem cell growth factor receptor Kit (Homo sapiens), P10721 [V559D,T670I]; assay: Inhibition of KIT V559D/T670I double mutant (unknown origin) assessed as remaining activity at 10 uM by high-throughput assay relative to control
[9] = biological target: Mitogen-activated protein kinase 9 (Homo sapiens) (UniProt P45984); assay: Inhibition of JNK2 (unknown origin) assessed as remaining activity at 10 uM by high-throughput assay relative to control
[10] = biological target: Mitogen-activated protein kinase 10 (Homo sapiens) (UniProt P53779); assay: Inhibition of JNK3 (unknown origin) assessed as remaining activity at 10 uM by high-throughput assay relative to control
Sequence of Mitogen-activated protein kinase 10 (Homo sapiens) (P53779 whole entry): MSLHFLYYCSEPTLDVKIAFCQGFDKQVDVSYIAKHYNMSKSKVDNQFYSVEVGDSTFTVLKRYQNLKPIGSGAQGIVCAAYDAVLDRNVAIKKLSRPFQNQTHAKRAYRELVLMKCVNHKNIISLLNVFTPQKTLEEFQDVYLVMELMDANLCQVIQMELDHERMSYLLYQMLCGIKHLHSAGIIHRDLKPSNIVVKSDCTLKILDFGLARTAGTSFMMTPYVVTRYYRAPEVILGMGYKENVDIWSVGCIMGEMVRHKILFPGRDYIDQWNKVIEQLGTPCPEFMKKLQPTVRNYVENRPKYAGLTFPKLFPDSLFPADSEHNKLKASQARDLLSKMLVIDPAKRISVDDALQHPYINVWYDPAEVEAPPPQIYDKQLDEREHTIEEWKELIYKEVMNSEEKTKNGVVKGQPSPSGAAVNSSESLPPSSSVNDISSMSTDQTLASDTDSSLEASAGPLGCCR

[11] = biological target: Cyclin-dependent kinase 11B (Homo sapiens) (UniProt P21127); assay: Inhibition of CDK11 (unknown origin) assessed as remaining activity at 10 uM by high-throughput assay relative to control
[12] = biological target: High affinity nerve growth factor receptor (Homo sapiens, UniProt P04629); assay: Inhibition of TrkA (unknown origin) by radiometric analysis in presence of [gamma-33P]-ATP
Sequence of High affinity nerve growth factor receptor (P04629 whole entry, the tested form may be a part): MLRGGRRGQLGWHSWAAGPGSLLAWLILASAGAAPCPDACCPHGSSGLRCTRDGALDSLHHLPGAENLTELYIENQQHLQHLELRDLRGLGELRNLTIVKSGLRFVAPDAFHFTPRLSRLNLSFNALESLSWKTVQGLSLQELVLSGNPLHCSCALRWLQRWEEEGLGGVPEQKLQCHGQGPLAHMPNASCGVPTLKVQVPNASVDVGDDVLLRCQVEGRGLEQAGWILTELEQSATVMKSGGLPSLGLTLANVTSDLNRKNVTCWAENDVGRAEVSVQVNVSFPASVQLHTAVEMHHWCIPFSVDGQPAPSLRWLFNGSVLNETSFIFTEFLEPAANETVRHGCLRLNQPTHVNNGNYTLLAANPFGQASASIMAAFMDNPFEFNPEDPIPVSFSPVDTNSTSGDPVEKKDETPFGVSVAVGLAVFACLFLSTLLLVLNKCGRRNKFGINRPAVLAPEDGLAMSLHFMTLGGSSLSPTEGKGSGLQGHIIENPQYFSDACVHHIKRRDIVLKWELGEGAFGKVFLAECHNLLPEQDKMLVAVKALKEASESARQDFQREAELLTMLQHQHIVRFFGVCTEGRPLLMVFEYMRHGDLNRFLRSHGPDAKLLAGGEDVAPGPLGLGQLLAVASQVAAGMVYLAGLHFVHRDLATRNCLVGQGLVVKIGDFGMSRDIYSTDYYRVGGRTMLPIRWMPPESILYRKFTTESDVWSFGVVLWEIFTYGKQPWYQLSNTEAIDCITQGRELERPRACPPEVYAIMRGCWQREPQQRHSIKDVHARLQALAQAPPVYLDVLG

[13] = biological target: Tyrosine-protein kinase JAK3 (Homo sapiens) (UniProt P52333); assay: Inhibition of JAK3 JH1 catalytic domain (unknown origin) assessed as remaining activity at 10 uM by high-throughput assay relative to control
[14] = biological target: Mitogen-activated protein kinase 3 (Homo sapiens) (UniProt P27361); assay: Inhibition of ERK1 (unknown origin) assessed as remaining activity at 10 uM by high-throughput assay relative to control
[15] = biological target: Serine/threonine-protein kinase PAK 2 (Homo sapiens) (UniProt Q13177); assay: Inhibition of PAK2 (unknown origin) assessed as remaining activity at 10 uM by high-throughput assay relative to control
[16] = biological target: Casein kinase I isoform delta (Homo sapiens) (UniProt P48730); assay: Inhibition of CSNK1D (unknown origin) assessed as remaining activity at 10 uM by high-throughput assay relative to control
Sequence of Casein kinase I isoform delta (Homo sapiens) (P48730 whole entry, looked up, canonical isoform): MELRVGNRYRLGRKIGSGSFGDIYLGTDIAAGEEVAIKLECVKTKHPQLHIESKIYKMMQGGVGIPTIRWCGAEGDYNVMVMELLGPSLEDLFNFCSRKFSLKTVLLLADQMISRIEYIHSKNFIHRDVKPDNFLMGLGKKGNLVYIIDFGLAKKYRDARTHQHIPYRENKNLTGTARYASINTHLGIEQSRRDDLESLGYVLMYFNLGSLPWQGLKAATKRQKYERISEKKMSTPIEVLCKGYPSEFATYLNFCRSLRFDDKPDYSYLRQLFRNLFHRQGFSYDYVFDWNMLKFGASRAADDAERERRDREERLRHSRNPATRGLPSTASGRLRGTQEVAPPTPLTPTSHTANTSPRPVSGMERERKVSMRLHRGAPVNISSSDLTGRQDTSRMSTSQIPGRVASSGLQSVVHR

[17] = biological target: Proto-oncogene tyrosine-protein kinase Src (Homo sapiens) (UniProt P12931); assay: Inhibition of SRC (unknown origin) assessed as remaining activity at 10 uM by high-throughput assay relative to control
[18] = biological target: Mitogen-activated protein kinase 8 (Homo sapiens) (UniProt P45983); assay: Inhibition of JNK1 (unknown origin) assessed as remaining activity at 10 uM by high-throughput assay relative to control
[19] = biological target: Serine/threonine-protein kinase pim-2 (Homo sapiens) (UniProt Q9P1W9); assay: Inhibition of PIM2 (unknown origin) assessed as remaining activity at 10 uM by high-throughput assay relative to control
Sequence of Serine/threonine-protein kinase pim-2 (Homo sapiens) (Q9P1W9 whole entry, looked up): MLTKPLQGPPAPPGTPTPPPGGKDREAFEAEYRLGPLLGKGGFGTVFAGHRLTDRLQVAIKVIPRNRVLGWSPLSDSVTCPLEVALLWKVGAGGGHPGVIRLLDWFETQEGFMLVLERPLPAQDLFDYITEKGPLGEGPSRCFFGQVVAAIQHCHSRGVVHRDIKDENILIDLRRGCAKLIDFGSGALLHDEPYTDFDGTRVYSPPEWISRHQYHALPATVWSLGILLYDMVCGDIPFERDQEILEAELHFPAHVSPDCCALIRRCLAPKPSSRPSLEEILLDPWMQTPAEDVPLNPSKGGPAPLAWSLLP

[20] = biological target: Tyrosine-protein kinase BTK (Homo sapiens) (UniProt Q06187); assay: Inhibition of BTK (unknown origin) assessed as remaining activity at 10 uM by high-throughput assay relative to control
[21] = biological target: Testis-specific serine/threonine-protein kinase 1 (Homo sapiens) (UniProt Q9BXA7); assay: Inhibition of TSSK1B (unknown origin) assessed as remaining activity at 10 uM by high-throughput assay relative to control
[22] = biological target: 3-phosphoinositide-dependent protein kinase 1 (Homo sapiens) (UniProt O15530); assay: Inhibition of PDPK1 (unknown origin) assessed as remaining activity at 10 uM by high-throughput assay relative to control
Sequence of 3-phosphoinositide-dependent protein kinase 1 (Homo sapiens) (O15530 whole entry): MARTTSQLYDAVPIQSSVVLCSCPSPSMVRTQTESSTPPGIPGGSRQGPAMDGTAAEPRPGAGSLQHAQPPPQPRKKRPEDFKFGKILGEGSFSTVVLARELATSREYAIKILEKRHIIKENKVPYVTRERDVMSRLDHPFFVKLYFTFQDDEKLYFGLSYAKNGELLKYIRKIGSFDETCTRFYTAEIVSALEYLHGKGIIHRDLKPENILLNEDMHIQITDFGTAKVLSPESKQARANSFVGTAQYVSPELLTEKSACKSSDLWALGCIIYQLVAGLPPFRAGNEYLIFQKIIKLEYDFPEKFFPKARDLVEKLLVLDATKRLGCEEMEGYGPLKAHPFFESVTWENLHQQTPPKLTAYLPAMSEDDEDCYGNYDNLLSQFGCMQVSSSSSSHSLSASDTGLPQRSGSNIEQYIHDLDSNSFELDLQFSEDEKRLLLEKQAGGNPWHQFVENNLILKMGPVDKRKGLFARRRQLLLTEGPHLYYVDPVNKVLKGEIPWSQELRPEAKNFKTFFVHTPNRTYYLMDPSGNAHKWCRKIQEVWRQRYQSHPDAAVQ

[23] = biological target: Dual specificity mitogen-activated protein kinase kinase 2 (Homo sapiens) (UniProt P36507); assay: Inhibition of MEK2 (unknown origin) assessed as remaining activity at 10 uM by high-throughput assay relative to control
Sequence of Dual specificity mitogen-activated protein kinase kinase 2 (Homo sapiens) (P36507 whole entry): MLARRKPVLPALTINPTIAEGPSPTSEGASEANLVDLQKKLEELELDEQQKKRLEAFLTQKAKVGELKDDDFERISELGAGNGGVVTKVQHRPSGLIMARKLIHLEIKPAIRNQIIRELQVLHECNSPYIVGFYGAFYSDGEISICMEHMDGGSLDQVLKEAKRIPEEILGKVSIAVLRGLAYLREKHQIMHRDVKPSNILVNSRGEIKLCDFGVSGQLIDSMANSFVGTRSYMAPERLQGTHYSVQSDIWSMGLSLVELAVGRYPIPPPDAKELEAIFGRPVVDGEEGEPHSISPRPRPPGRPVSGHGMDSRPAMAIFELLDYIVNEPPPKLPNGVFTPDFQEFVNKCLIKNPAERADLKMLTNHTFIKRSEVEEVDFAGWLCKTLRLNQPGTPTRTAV

[24] = biological target: Receptor tyrosine-protein kinase erbB-4 (Homo sapiens) (UniProt Q15303); assay: Inhibition of ERBB4 (unknown origin) assessed as remaining activity at 10 uM by high-throughput assay relative to control
[25] = biological target: Serine/threonine-protein kinase Chk1 (Homo sapiens) (UniProt O14757); assay: Inhibition of CHEK1 (unknown origin) assessed as remaining activity at 10 uM by high-throughput assay relative to control
[26] = biological target: Focal adhesion kinase 1 (Homo sapiens) (UniProt Q05397); assay: Inhibition of FAK (unknown origin) assessed as remaining activity at 10 uM by high-throughput assay relative to control
[27] = biological target: Serine/threonine-protein kinase PLK3 (Homo sapiens, UniProt Q9H4B4); assay: Inhibition of PLK3 (unknown origin) by radiometric analysis in presence of [gamma-33P]-ATP
[28] = biological target: Serine/threonine-protein kinase RIO2 (Homo sapiens) (UniProt Q9BVS4); assay: Inhibition of RIOK2 (unknown origin) assessed as remaining activity at 10 uM by high-throughput assay relative to control
Sequence of Serine/threonine-protein kinase RIO2 (Homo sapiens) (Q9BVS4 whole entry, looked up): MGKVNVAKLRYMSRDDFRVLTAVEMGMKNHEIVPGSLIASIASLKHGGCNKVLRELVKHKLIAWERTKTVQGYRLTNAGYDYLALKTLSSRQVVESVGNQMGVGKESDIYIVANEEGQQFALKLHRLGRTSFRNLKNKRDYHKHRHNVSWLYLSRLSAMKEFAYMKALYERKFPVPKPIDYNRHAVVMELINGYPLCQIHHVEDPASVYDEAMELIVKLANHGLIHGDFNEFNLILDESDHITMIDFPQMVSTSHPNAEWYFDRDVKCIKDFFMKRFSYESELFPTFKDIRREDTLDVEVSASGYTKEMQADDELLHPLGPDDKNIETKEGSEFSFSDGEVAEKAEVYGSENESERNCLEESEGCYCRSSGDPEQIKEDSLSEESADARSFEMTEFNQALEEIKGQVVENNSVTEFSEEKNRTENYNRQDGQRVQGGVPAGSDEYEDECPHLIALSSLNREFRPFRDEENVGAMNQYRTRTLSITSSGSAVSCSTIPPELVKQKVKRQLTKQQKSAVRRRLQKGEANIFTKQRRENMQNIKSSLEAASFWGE

[29] = tested on: Tyrosine-protein kinase ABL1 (Homo sapiens), P00519 [T315I]; assay: Inhibition of ABL1 T315I mutant phosphorylation (unknown origin) assessed as remaining activity at 10 uM by high-throughput assay relative to control
[30] = biological target: Serine/threonine-protein kinase PLK4 (Homo sapiens) (UniProt O00444); assay: Inhibition of PLK4 (unknown origin) assessed as remaining activity at 10 uM by high-throughput assay relative to control
[31] = biological target: Mitogen-activated protein kinase kinase kinase 4 (Homo sapiens) (UniProt Q9Y6R4); assay: Inhibition of MAP3K4 (unknown origin) assessed as remaining activity at 10 uM by high-throughput assay relative to control
[32] = tested on: Epidermal growth factor receptor (Homo sapiens), P00533 [L858R]; assay: Inhibition of EGFR L858R mutant (unknown origin) assessed as remaining activity at 10 uM by high-throughput assay relative to control; format: protein assay

- Activity [1]: 77%
- Activity [2]: 72%
- Activity [3]: 93%
- Activity [4]: 74%
- Activity [5]: 70%
- Activity [6]: 56%
- Activity [7]: 92%
- Activity [8]: 65%
- Activity [9]: 49%
- Activity [10]: 33%
- Activity [11]: 66%
- IC50 [12]: 55.8 µM
- Activity [13]: 61%
- Activity [14]: 87%
- Activity [15]: 82%
- Activity [16]: 30%
- Activity [17]: 83%
- Activity [18]: 34%
- Activity [19]: 82%
- Activity [20]: 76%
- Activity [21]: 71%
- Activity [22]: 99%
- Activity [23]: 71%
- Activity [24]: 100%
- Activity [25]: 90%
- Activity [26]: 90%
- IC50 [27]: 8.97 µM
- Activity [28]: 70%
- Activity [29]: 61%
- Activity [30]: 80%
- Activity [31]: 91%
- Activity [32]: 90%
Structure (SMILES): O=C1c2ccccc2-c2c1oc1ccccc1c2=O
